Target: T1, TAK1 (TAK1-TAB1 fusion protein) (Homo sapiens, UniProt O43318)
T1 sequence (O43318 15-303): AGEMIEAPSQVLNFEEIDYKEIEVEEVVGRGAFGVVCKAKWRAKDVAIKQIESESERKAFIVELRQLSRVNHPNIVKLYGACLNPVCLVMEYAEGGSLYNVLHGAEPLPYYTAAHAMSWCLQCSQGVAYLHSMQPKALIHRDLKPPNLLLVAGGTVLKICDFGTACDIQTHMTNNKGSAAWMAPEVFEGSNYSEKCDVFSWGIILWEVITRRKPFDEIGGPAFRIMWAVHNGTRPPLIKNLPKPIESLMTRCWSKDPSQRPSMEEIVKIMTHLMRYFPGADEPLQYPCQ
T1 sequence (Q15750 468-504 partner): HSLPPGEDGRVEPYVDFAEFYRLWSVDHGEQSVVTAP
Assay: SPR
Format: binding

## COc1cc(Nc2ncc(F)c(Nc3ccc4c(n3)N(COP(=O)(O)O)C(=O)C(C)(C)O4)n2)cc(OC)c1OC [R788]
  Kd: 12.1 µM
